For this test, the target named is T1, WIZ protein (HiBit-WIZ fusion protein) (Homo sapiens, UniProt O95785+Q96SW2).
T1 construct: expressed in transfected cells
In words: Quantification of WIZ protein levels in HiBit tag fusion protein assay (WIZ HiBit assay in 293T cells). It counts as cell-based. The arrangement: remaining activity / Dmax: dose or concentration left out as unconfirmed. As to conditions: for Dmax at 25 µM / remaining activity at 25 µM / Dmax / remaining activity: HEK-293T; for Dmax at 25 µM: 100 − Amax; for Dmax at 25 µM / remaining activity at 25 µM: 293T cells; for Dmax at 25 µM / Dmax: read-out: % degradation of WIZ (100 − Amax); for remaining activity at 25 µM: DMSO-normalized, curve-fitted percentage of WIZ-HiBit remaining at 25 uM; for remaining activity at 25 µM / remaining activity: read-out: WIZ Amax; for DC50: WIZ HiBit assay in 293T cells, 10-point, 5-fold dose response, highest concentration 25 μM, about 18 hours, read-out: WIZ AC50. In outline: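 HiBit-tagged WIZ (N-terminal tag, HSVTK promoter) stably expressed single-copy in 293T cells; 10-point 1:5 compound series, top 25 μM, ~18 h at 37 °C. Lytic HiBit/LgBit luminescence read; Amax = curve-fitted % WIZ-HiBit remaining at 25 μM, DMSO normalized to 100%.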

T1 sequence (O95785 whole entry, the tested form may be a part): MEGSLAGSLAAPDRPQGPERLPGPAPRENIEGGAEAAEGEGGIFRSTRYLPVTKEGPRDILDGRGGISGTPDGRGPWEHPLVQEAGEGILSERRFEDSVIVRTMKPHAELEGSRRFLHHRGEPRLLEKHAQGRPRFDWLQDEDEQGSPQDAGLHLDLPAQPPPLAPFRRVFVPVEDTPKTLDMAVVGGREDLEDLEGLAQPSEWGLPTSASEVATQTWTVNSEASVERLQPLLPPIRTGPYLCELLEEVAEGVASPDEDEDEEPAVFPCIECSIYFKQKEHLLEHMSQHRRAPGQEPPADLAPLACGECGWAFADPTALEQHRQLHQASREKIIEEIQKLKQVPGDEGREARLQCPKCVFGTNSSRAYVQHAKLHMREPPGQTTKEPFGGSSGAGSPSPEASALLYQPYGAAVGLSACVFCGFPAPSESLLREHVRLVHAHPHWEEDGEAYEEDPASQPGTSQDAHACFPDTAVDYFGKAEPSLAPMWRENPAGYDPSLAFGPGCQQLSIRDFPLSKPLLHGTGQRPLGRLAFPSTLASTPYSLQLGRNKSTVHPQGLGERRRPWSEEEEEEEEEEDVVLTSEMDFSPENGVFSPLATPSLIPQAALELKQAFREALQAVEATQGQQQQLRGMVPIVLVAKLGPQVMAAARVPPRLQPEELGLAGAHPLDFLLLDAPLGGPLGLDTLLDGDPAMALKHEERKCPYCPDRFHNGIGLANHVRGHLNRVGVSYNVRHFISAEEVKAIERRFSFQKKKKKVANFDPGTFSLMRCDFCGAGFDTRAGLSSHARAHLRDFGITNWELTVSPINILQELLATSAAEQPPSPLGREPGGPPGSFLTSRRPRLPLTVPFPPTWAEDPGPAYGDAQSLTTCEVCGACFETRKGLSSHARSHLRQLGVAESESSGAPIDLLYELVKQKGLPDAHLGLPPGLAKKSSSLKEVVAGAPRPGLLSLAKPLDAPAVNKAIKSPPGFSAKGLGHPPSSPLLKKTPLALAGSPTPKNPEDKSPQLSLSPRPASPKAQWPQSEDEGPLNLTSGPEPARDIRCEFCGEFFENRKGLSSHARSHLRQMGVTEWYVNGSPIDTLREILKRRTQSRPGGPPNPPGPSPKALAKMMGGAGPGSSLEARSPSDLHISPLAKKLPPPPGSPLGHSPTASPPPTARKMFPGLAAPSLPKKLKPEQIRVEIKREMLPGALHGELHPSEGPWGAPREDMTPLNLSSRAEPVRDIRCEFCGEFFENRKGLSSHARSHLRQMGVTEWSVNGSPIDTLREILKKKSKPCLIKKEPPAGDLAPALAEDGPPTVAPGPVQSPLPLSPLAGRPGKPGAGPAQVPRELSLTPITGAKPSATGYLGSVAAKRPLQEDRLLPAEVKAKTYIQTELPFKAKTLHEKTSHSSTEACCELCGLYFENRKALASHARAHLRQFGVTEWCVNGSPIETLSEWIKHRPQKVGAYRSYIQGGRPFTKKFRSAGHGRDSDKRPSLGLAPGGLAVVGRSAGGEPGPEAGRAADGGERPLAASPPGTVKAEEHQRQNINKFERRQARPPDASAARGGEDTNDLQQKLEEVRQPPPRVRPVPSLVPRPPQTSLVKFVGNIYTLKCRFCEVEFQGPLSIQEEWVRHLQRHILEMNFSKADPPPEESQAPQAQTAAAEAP
T1 sequence (Q96SW2 whole entry, the tested form may be a part): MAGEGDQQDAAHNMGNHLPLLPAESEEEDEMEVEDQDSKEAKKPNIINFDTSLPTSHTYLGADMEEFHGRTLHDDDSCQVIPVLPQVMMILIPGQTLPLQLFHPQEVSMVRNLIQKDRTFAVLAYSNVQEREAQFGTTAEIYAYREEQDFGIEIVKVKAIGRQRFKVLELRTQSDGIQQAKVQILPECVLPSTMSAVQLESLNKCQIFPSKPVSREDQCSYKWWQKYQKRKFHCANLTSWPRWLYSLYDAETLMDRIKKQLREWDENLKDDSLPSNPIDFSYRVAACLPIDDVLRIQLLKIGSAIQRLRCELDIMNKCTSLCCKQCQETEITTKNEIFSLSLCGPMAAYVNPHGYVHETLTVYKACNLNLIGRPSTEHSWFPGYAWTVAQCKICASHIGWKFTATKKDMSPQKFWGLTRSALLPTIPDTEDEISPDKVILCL
T1 sequence (Q16531 whole entry partner, the tested form may be a part): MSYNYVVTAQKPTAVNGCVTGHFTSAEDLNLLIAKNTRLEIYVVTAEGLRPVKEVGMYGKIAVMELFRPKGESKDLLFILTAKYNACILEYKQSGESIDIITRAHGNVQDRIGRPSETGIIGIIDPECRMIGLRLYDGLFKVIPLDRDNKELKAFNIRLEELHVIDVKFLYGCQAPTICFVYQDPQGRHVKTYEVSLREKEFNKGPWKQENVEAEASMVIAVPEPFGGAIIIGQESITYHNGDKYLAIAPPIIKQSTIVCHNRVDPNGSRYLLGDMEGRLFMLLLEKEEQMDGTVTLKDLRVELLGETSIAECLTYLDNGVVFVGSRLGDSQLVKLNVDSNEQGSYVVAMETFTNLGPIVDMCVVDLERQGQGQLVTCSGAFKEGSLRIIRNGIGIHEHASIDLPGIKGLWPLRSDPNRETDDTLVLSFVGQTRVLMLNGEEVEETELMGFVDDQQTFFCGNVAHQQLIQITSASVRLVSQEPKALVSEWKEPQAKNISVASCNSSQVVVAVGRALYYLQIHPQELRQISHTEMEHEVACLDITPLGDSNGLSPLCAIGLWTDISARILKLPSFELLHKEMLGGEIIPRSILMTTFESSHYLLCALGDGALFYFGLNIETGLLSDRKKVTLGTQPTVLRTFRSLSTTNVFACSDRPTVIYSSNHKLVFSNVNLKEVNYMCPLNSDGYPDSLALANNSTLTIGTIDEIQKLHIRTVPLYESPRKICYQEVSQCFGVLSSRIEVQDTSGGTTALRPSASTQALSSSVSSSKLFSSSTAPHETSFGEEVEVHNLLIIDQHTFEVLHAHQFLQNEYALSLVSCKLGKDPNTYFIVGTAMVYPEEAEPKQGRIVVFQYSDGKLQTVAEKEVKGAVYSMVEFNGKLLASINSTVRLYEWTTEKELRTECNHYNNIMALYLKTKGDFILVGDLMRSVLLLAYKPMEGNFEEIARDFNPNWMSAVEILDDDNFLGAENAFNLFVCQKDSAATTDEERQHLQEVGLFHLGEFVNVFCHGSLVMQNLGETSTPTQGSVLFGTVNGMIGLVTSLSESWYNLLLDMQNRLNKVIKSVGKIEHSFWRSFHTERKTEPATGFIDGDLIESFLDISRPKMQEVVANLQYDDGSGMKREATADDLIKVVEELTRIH

`C[C@H]1C[C@@H](Cc2ccn3ncc(N4CCC(=O)NC4=O)c3c2)CCN1CC1CCC(F)(F)CC1` [Example 74]: the Dmax at 25 µM came to 90%, the remaining activity at 25 µM amounted to 10% and the DC50 amounted to 0.003 µM.
In the same order, the values of `C[C@@H]1C[C@H](Cc2ccn3ncc(N4CCC(=O)NC4=O)c3c2)CCN1CC1CCOCC1` [Example 75] are 81%, 19% and 0.098 µM.
In the same order, the values of `C[C@@H]1C[C@H](Cc2ccn3ncc(N4CCC(=O)NC4=O)c3c2)CCN1CC1CCCCC1` [Example 76] are 81%, 19% and 0.036 µM.
Regarding `CC(C)CN1CC[C@@H](Cc2ccn3ncc(N4CCC(=O)NC4=O)c3c2)C[C@H]1C` [Example 77], the Dmax at 25 µM amounted to 68%, the remaining activity at 25 µM stood at 32% and the DC50 was 0.077 µM.
On to `C[C@@H]1C[C@H](Cc2ccn3ncc(N4CCC(=O)NC4=O)c3c2)CCN1CC1CCC(F)(F)CC1` [Example 78], for which the Dmax at 25 µM was 83%, the remaining activity at 25 µM came out at 17% and the DC50 is 0.01 µM.
Take `CC(C)CN1CCC(Cc2ccn3ncc(N4CCC(=O)NC4=O)c3c2)CC1(C)C` (stereo not drawn) [Example 79, 1-(5-((1-isobutyl-2,2-dimethylpiperidin-4-yl)methyl)pyrazolo[1,5-a]pyridin-3-yl)dihydropyrimidine-2,4(1H,3H)-dione]: the Dmax at 25 µM was determined as 65%, the remaining activity at 25 µM was 35% and the DC50 was 0.065 µM.
Consider `O=C1CCN(c2cnn3ccc(CC4CCN(S(=O)(=O)CC5CCCCC5)CC4)cc23)C(=O)N1` [Example 80, 1-(5-((1-((cyclohexylmethyl)sulfonyl)piperidin-4-yl)methyl)pyrazolo[1,5-a]pyridin-3-yl)dihydropyrimidine-2,4(1H,3H)-dione], for which the Dmax stood at 88%, the remaining activity was 12% and the DC50 worked out at 0.049 µM.
As for `O=C1CCN(c2cnn3ccc(CC4CCN(S(=O)(=O)C5CCCCC5)CC4)cc23)C(=O)N1` [Example 81], the Dmax at 25 µM was 92%, the remaining activity at 25 µM was 8% and the DC50 came out at 0.015 µM.
In the same order, the values of `O=C1CCN(c2cnn3ccc(CC4CCN(S(=O)(=O)C5CCCC5)CC4)cc23)C(=O)N1` [Example 82] are 90%, 10% and 0.033 µM.
In the same order, the values of `O=C1CCN(c2cnn3ccc(CC4CCN(S(=O)(=O)C5CCOCC5)CC4)cc23)C(=O)N1` [Example 83] are 89%, 11% and 0.076 µM.
In the same order, the values of `O=C1CCN(c2cnn3ccc(CC4CCN(S(=O)(=O)CC5CC5)CC4)cc23)C(=O)N1` [Example 84] are 87%, 13% and 0.055 µM.
As to `CC(C)S(=O)(=O)N1CCC(Cc2ccn3ncc(N4CCC(=O)NC4=O)c3c2)CC1` [Example 85], the Dmax at 25 µM was determined as 83%, the remaining activity at 25 µM amounted to 17% and the DC50 was 0.038 µM.
In the same order, the values of `CCC(C)S(=O)(=O)N1CCC(Cc2ccn3ncc(N4CCC(=O)NC4=O)c3c2)CC1` (stereo not drawn) [Example 86] are 80%, 20% and 0.027 µM.
In the same order, the values of `CC(C)CS(=O)(=O)N1CCC(Cc2ccn3ncc(N4CCC(=O)NC4=O)c3c2)CC1` [Example 87] are 79%, 21% and 0.025 µM.
`O=C1CCN(c2cnn3ccc(CC4CCN(S(=O)(=O)Cc5ccccc5)CC4)cc23)C(=O)N1` [Example 88]: the Dmax at 25 µM came out at 78%, the remaining activity at 25 µM is 22% and the DC50 was determined as 0.181 µM.
Take `O=C1CCN(c2cnn3ccc(CC4CCN(S(=O)(=O)C5CC5)CC4)cc23)C(=O)N1` [Example 89]: the Dmax at 25 µM was 77%, the remaining activity at 25 µM came out at 23% and the DC50 is 0.285 µM.
With `CS(=O)(=O)N1CCC(Cc2ccn3ncc(N4CCC(=O)NC4=O)c3c2)CC1` [Example 90], the Dmax at 25 µM was determined as 77%, the remaining activity at 25 µM amounted to 23% and the DC50 is 2 µM.
`O=C1CCN(c2cnn3ccc(CC4CCN(S(=O)(=O)c5ccccc5)CC4)cc23)C(=O)N1` [Example 91]: the Dmax at 25 µM came to 74%, the remaining activity at 25 µM came out at 26% and the DC50 was 0.15 µM.
On to `COCCS(=O)(=O)N1CCC(Cc2ccn3ncc(N4CCC(=O)NC4=O)c3c2)CC1` [Example 92], for which the Dmax at 25 µM amounted to 69%, the remaining activity at 25 µM came to 31% and the DC50 worked out at 0.131 µM.
Regarding `COC(=O)N1CCC(Cc2ccn3ncc(N4CCC(=O)NC4=O)c3c2)CC1` [Example 93], the Dmax at 25 µM is 62%, the remaining activity at 25 µM was determined as 38% and the DC50 was found to be 6.52 µM.
For `O=C1CCN(c2cnn3ccc(CC4CCN(C(=O)Oc5ccccc5)CC4)cc23)C(=O)N1` [Example 94], the Dmax at 25 µM worked out at 62%, the remaining activity at 25 µM worked out at 38% and the DC50 was 3.99 µM.
Turning to `CC(C)COC(=O)N1CCC(Cc2ccn3ncc(N4CCC(=O)NC4=O)c3c2)CC1` [Example 95], the Dmax at 25 µM was determined as 43%, the remaining activity at 25 µM was found to be 57% and the DC50 was greater than 25 µM.
As for `O=C1CCN(c2cnn3ccc(CC4CCN(C(=O)OC5CCCCC5)CC4)cc23)C(=O)N1` [Example 96], the Dmax at 25 µM amounted to 42%, the remaining activity at 25 µM was found to be 58% and the DC50 was greater than 25 µM.
In the same order, the values of `CC(C)(C)OC(=O)N1CCC(Cc2ccn3ncc(N4CCC(=O)NC4=O)c3c2)CC1` [Example 97, tert-butyl 4-((3-(2,4-dioxotetrahydropyrimidin-1(2H)-yl)pyrazolo[1,5-a]pyridin-5-yl)methyl)piperidine-1-carboxylate] are 44%, 56% and 24.8 µM.
For `CC(C)C(=O)N1CCC(Cc2ccn3ncc(N4CCC(=O)NC4=O)c3c2)CC1` [Example 98, 1-(5-((1-isobutyrylpiperidin-4-yl)methyl)pyrazolo[1,5-a]pyridin-3-yl)dihydropyrimidine-2,4(1H,3H)-dione], the Dmax came out at 59%, the remaining activity turned out to be 41% and the DC50 worked out at 0.587 µM.
As for `O=C1CCN(c2cnn3ccc(CC4CCN(C(=O)C5CCCCC5)CC4)cc23)C(=O)N1` [Example 99], the Dmax at 25 µM was 52%, the remaining activity at 25 µM was 48% and the DC50 was 1.83 µM.
Consider `O=C1CCN(c2cnn3ccc(CC4CCN(C(=O)C5(C(F)(F)F)CC5)CC4)cc23)C(=O)N1` [Example 100], for which the Dmax at 25 µM turned out to be 42%, the remaining activity at 25 µM was 58% and the DC50 is 0.755 µM.
In the same order, the values of `O=C1CCN(c2cnn3ccc(CC4CCN(C(=O)c5ccccc5)CC4)cc23)C(=O)N1` [Example 101] are 33%, 67% and greater than 25 µM.
In the same order, the values of `O=C1CCN(c2cnn3ccc(CC4CCN(C(=O)CCc5ccccc5)CC4)cc23)C(=O)N1` [Example 102] are 40%, 60% and 0.165 µM.
Turning to `O=C1CCN(c2cnn3ccc(CC4CCN(C(=O)CCC5CCCCC5)CC4)cc23)C(=O)N1` [Example 103], the Dmax at 25 µM was found to be 28%, the remaining activity at 25 µM was found to be 72% and the DC50 was 0.082 µM.
`CC(=O)N1CCC(Cc2ccn3ncc(N4CCC(=O)NC4=O)c3c2)CC1` [Example 104, 1-(5-((1-acetylpiperidin-4-yl)methyl)pyrazolo[1,5-a]pyridin-3-yl)dihydropyrimidine-2,4(1H,3H)-dione]: the Dmax was 62%, the remaining activity was 38% and the DC50 came out at 7.36 µM.
`COC(C)(C)CN1CCC(Cc2ccn3ncc(N4CCC(=O)NC4=O)c3c2)CC1` [Example 105, 1-(5-((1-(2-methoxy-2-methylpropyl)piperidin-4-yl)methyl)pyrazolo[1,5-a]pyridin-3-yl)dihydropyrimidine-2,4(1H,3H)-dione]: the Dmax worked out at 64%, the remaining activity worked out at 36% and the DC50 worked out at 2.16 µM.
On to `CC(C)(O)CN1CCC(Cc2ccn3ncc(N4CCC(=O)NC4=O)c3c2)CC1` [Example 106, 1-(5-((1-(2-hydroxy-2-methylpropyl)piperidin-4-yl)methyl)pyrazolo[1,5-a]pyridin-3-yl)dihydropyrimidine-2,4(1H,3H)-dione], for which the Dmax at 25 µM was determined as 68%, the remaining activity at 25 µM was determined as 32% and the DC50 came out at 0.283 µM.
In the same order, the values of `O=C1CCN(c2cnn3ccc(CC4CCN(CC5(F)CCCCC5)CC4)cc23)C(=O)N1` [Example 107, 1-(5-((1-((1-fluorocyclohexyl)methyl)piperidin-4-yl)methyl)pyrazolo[1,5-a]pyridin-3-yl)dihydropyrimidine-2,4(1H,3H)-dione] are 78%, 22% and 0.031 µM.
Regarding `O=C1CCN(c2cnn3ccc(CC4CCNCC4)cc23)C(=O)N1` [Example 108, 1-(5-(piperidin-4-ylmethyl)pyrazolo[1,5-a]pyridin-3-yl)dihydropyrimidine-2,4(1H,3H)-dione], the Dmax at 25 µM came to 34%, the remaining activity at 25 µM is 66% and the DC50 stood at 1.34 µM.

The values are drawn from US11787785B2 (NOVARTIS AG, priority 2021, dated 2023).
